From ChEMBL document CHEMBL1800026 (Bioorg Med Chem, 2010) come the findings set out here.

Assay [1] is described as follows: Selectivity ratio of Ki for beta1-adrenergic receptor in Sprague-Dawley rat cortical membrane to Ki for human beta2-adrenergic receptor.
The target of assay [2] is Beta-2 adrenergic receptor (Rattus norvegicus) (UniProt P10608). As to the kind of experiment: Agonist activity beta2-adrenergic receptor in rat ventricular myocytes assessed as cell contraction following electrical stimulation by optical edge tracking method using photodiode array in presence of receptor agonist zinterol. The format is functional, cell-based.
Beta-2 adrenergic receptor (Rattus norvegicus), sequence (P10608 whole entry, looked up): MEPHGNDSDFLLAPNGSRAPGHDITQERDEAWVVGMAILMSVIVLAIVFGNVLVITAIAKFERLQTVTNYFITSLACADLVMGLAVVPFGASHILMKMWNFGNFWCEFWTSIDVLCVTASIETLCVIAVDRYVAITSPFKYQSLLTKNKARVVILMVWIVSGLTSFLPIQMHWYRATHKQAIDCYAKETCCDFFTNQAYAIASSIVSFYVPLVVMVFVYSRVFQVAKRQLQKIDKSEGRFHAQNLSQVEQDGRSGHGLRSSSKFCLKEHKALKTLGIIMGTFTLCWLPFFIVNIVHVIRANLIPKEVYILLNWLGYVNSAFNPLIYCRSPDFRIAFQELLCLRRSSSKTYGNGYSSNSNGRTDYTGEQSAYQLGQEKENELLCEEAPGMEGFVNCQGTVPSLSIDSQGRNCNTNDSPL
In assay [3] the target is Beta-1 adrenergic receptor (Rattus norvegicus, UniProt P18090). Briefly: Displacement of [3H]CGP-12177 from beta1-adrenergic receptor in Sprague-Dawley rat cortical membrane after 2 hrs.
Beta-1 adrenergic receptor (Rattus norvegicus, UniProt P18090), sequence (P18090 whole entry): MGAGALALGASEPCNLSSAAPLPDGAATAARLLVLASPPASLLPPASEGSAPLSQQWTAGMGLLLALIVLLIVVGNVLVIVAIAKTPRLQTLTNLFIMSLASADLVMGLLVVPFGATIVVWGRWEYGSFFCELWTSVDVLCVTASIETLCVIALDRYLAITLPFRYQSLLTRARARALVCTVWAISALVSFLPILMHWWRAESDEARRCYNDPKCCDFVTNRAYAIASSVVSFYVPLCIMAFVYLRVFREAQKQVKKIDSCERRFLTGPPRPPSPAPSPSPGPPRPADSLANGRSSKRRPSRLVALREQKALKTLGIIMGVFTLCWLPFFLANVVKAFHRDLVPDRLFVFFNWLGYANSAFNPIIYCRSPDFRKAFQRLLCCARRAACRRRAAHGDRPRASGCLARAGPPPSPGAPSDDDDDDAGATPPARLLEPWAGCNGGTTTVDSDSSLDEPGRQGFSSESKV
In assay [4] the target is T1, Beta-2 adrenergic receptor (Homo sapiens, UniProt P07550). As to the kind of experiment: Displacement of [3H]CGP-12177 from human beta2-adrenergic receptor expressed in HEK 293 cells. The format is cell-based, HEK293.
T1 sequence (P07550 whole entry): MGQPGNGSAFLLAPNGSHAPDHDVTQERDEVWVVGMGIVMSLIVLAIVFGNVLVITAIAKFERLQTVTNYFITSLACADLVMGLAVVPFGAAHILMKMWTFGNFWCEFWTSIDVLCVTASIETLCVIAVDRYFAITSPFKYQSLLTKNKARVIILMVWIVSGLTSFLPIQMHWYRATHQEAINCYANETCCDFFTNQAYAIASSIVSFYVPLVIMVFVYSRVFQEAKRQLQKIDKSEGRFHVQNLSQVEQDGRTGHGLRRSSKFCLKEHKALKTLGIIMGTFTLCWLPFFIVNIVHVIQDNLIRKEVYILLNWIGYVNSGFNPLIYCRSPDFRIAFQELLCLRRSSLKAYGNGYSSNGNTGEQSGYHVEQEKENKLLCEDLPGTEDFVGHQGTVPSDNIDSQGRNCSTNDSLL
In assay [5] the target is Beta-2 adrenergic receptor (Rattus norvegicus) (UniProt P10608). As to the kind of experiment: Agonist activity beta2-adrenergic receptor in rat ventricular myocytes assessed as cell contraction following electrical stimulation by optical edge tracking method using photodiode array in presence of receptor antagonist ICI 118551. The format is functional, cell-based.
Assay [6] concerns the target Beta-1 adrenergic receptor (Homo sapiens, UniProt P08588). Briefly: Displacement of [125I]-CYP from human beta1-adrenergic receptor expressed in COS-7 cells by gamma counting. The format is cell-based.
For the next assay, the species on record is Homo sapiens. As to the kind of experiment: Selectivity ratio of Ki for human beta1-adrenergic receptor to Ki human beta2-adrenergic receptor.
Assay [7] addresses T1, Beta-2 adrenergic receptor. Briefly: Displacement of [125I]-CYP from human beta2-adrenergic receptor expressed in COS-7 cells by gamma counting. The format is cell-based.

Active and inactive are the calls of the source. The calls are words filed in the database; no cut-off is given here.

Beta-1 adrenergic receptor (Homo sapiens, UniProt P08588), sequence (P08588 whole entry): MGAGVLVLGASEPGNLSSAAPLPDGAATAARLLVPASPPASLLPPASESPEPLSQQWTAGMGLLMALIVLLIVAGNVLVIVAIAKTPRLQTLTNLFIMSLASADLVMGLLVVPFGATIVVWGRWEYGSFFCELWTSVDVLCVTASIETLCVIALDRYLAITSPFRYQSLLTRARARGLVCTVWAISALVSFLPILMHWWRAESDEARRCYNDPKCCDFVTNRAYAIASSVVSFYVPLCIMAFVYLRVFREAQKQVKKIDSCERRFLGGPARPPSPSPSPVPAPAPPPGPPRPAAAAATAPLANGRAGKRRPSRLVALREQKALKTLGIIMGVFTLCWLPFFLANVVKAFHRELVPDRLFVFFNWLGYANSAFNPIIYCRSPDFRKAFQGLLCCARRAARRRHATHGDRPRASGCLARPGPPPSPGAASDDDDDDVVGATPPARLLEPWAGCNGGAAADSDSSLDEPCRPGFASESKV

Turning to `CC[C@H](Cc1ccc(O)cc1)NC[C@H](O)c1cc(O)cc(O)c1`, in assay [1], the Ratio Ki stood at 334. The outcome in assay [2] was Active. Also, the inhibition constant (Ki) in assay [3] turned out to be 424 µM; in assay [4], 1.27 µM. In assay [5], the result was inactive.
Turning to `C[C@H](Cc1ccc2ccccc2c1)NC[C@H](O)c1cc(O)cc(O)c1`, the Ki in assay [3] worked out at 16.6 µM. In other words, the double-digit micromolar range.
The same measure, in the same setting: with `COc1ccc(C[C@@H](C)NC[C@H](O)c2cc(O)cc(O)c2)c2ccccc12` the figure was 161 µM.
Take `OCc1cc(C(O)CNCCCCCCCCCCCc2ccccc2)ccc1O` (stereo not given): the results for the Ki in assay [6] and in assay [7] were 2.3 µM and 0.22 µM, respectively. The Ratio Ki in the assay filed under Homo sapiens worked out at 10.
In assay [3], `COc1ccc(C[C@H](C)NC[C@H](O)c2cc(O)cc(O)c2)c2ccccc12` (racemic) came in with an inhibitory constant (Ki) of 14.8 µM. That is a double-digit micromolar value.
For the compound `C[C@@H](Cc1ccc2ccccc2c1)NC[C@H](O)c1cc(O)cc(O)c1`, the affinity in assay [3], expressed as Ki, was 27.1 µM. This Ki is about 1.8-fold higher than that of the compound before.
As to `CC[C@@H](Cc1ccc(O)cc1)NC[C@H](O)c1cc(O)cc(O)c1` (racemic), the Ratio Ki in assay [1] amounted to 20. In addition, the figures for the Ki in assay [3] and in assay [4] were 117 µM and 5.76 µM, respectively.
